# Laboratory results taken from paper PMC8217813, “Bridging Computational Vaccinology and Vaccine Development Through Systematic Identification, Characterization, and Downselection of Conserved and Variable Circumsporozoite Protein CD4 T Cell Epitopes From Diverse Plasmodium falciparum Strains” (Frontiers in Immunology, 2021).
# Peptide text beside a SMILES is read from it.
# Experiments:
# HLA-DRB1*0401 = target: T1, HLA-DRB1*0401 (Homo sapiens, UniProt P01903+P01911, A100K/A169T/F76Y/I96L/K127E/L162R/M171V/N62H/P40V/Q125Y/R42H/S133A/S149N/S66Y/V115G/V209L/W38E); experiment: In vitro class II HLA binding competition assay; conditions: competition with fluorescent-labeled reference peptide, class II HLA monomers, 24-hours, test peptide 100,000 nM to 100 nM, time-resolved fluorescence; read-out: IC50, DRB1*0401
# T1 construct: purchased
# Protocol: (§1) EpiVax conducted in vitro quantification of peptide-HLA binding affinity utilizing a competition assay format per the methodology described in ([35]). Briefly, a fluorescent-labeled, high-binding reference peptide and titrating concentrations of test peptide were incubated in a 96-well plate format with limiting concentrations of class II HLA monomers in aqueous buffer for 24-hours. Post incubation, the mixtures were moved to a 96-well plate coated with anti-HLA-DR antibody to capture HLA-peptide complexes. Time-resolved fluorescence measurement of the bound labeled reference peptide complex present in each mixture were detected with a europium-linked probe via fluorescent spectrophotometry using a SpectraMax M5 system. HLA binding affinity of each test peptide was expressed as the percent inhibition of reference peptide binding. Percent inhibition values (across the test peptide titration range) were used to calculate the half maximal inhibitory concentration (IC50) of each test peptide. For these studies, test peptides were assessed using a range of final concentrations from 100,000 nM to 100 nM and all peptides were reconstituted in dimethyl sulfoxide (DMSO).
# HLA-DRB1*0801 = HLA-DRB1*0801 (Homo sapiens, UniProt P01903+P01911, A100R/A103L/A169T/D86S/F76Y/H45Y/I96F/K41T/L162R/M171V/P40S/Q125H/Q178H/Q39Y/Q99D/R218S/R42G/S66Y/V115G/W38E); experiment: In vitro class II HLA binding competition assay; conditions: competition with fluorescent-labeled reference peptide, class II HLA monomers, 24-hours, test peptide 100,000 nM to 100 nM, time-resolved fluorescence
# Protocol: as §1
# HLA-DRB1*1101 = target: T2, HLA-DRB1*1101 (Homo sapiens, UniProt P01903+P01911, A100R/A169T/A87E/I96F/K41T/L162R/M171V/P40S/Q125H/Q178H/Q39Y/Q99D/R42S/S66Y/T262R/V115G/W38E); experiment: In vitro class II HLA binding competition assay; conditions: competition with fluorescent-labeled reference peptide, class II HLA monomers, 24-hours, test peptide 100,000 nM to 100 nM, time-resolved fluorescence
# T2 construct: purchased
# Protocol: as §1
# HLA-DRB1*1301 = HLA-DRB1*1301 (Homo sapiens, UniProt P01903+P01911, A100E/A169T/K41T/L162R/M171V/P40S/Q125H/Q178H/Q39Y/Q99D/R42S/S66N/T262R/W38E/Y61H); experiment: In vitro class II HLA binding competition assay; conditions: competition with fluorescent-labeled reference peptide, class II HLA monomers, 24-hours, test peptide 100,000 nM to 100 nM, time-resolved fluorescence
# Protocol: as §1
# [1] = test system: CD4 T cells co-cultured with autologous DCs from PBMCs; assay type: cell-based, human; conditions: positive = Stimulation Index ≥1.5-fold above baseline, 5 µg/mL peptide
smiles,measurement,setting,value
CC(=O)N[C@@H](CCCCN)C(=O)N[C@@H](CCC(N)=O)C(=O)N[C@@H](CCC(=O)O)C(=O)N[C@@H](CC(N)=O)C(=O)N[C@@H](Cc1c[nH]c2ccccc12)C(=O)N[C@@H](Cc1ccc(O)cc1)C(=O)N[C@@H](CO)C(=O)N[C@@H](CC(C)C)C(=O)N[C@@H](CCCCN)C(=O)N[C@@H](CCCCN)C(=O)N[C@@H](CC(N)=O)C(=O)N[C@@H](CO)C(=O)N[C@@H](CCCNC(=N)N)C(=O)N[C@@H](CO)C(=O)N[C@@H](CC(C)C)C(=O)NCC(=O)N[C@@H](CCC(=O)O)C(=O)N[C@@H](CC(N)=O)C(=O)N[C@@H](CC(=O)O)C(N)=O [Cluster C2] (Ac-KQENWYSLKKNSRSLGEND-NH2),IC50,HLA-DRB1*0401,10800 nM
same,IC50,HLA-DRB1*0801,108 nM
same,IC50,HLA-DRB1*1101,395 nM
same,IC50,HLA-DRB1*1301,37 nM
same,"Percentage of donors demonstrating IFN-γ responses, DR1","[1]; DR1 donors N=5, ICCS after 14-day co-culture",20%
same,"Percentage of donors demonstrating IL-2 responses, DR1","[1]; DR1 donors N=5, ICCS",0%
same,"Percentage of donors demonstrating IL-4 responses, DR1","[1]; DR1 donors N=5, ICCS",40%
same,"Percentage of donors demonstrating IL-10 responses, DR1","[1]; DR1 donors N=5, ICCS",20%
same,"Percentage of donors demonstrating TNF-α responses, DR1","[1]; DR1 donors N=5, ICCS",0%
same,"Percentage of donors demonstrating IFN-γ responses, DR3","[1]; DR3 donors N=6, ICCS after 14-day co-culture",33%
same,"Percentage of donors demonstrating IL-2 responses, DR3","[1]; DR3 donors N=6, ICCS",0%
same,"Percentage of donors demonstrating IL-4 responses, DR3","[1]; DR3 donors N=6, ICCS",0%
same,"Percentage of donors demonstrating IL-10 responses, DR3","[1]; DR3 donors N=6, ICCS",50%
same,"Percentage of donors demonstrating TNF-α responses, DR3","[1]; DR3 donors N=6, ICCS",0%
same,"Percentage of donors demonstrating IFN-γ responses, DR4","[1]; DR4 donors N=10, ICCS after 14-day co-culture",0%
same,"Percentage of donors demonstrating IL-2 responses, DR4","[1]; DR4 donors N=10, ICCS",0%
same,"Percentage of donors demonstrating IL-4 responses, DR4","[1]; DR4 donors N=10, ICCS",10%
same,"Percentage of donors demonstrating IL-10 responses, DR4","[1]; DR4 donors N=10, ICCS",10%
same,"Percentage of donors demonstrating TNF-α responses, DR4","[1]; DR4 donors N=10, ICCS",0%
same,"Percentage of donors demonstrating IFN-γ responses, DR7","[1]; DR7 donors N=4, ICCS after 14-day co-culture",0%
same,"Percentage of donors demonstrating IL-2 responses, DR7","[1]; DR7 donors N=4, ICCS",0%
same,"Percentage of donors demonstrating IL-4 responses, DR7","[1]; DR7 donors N=4, ICCS",25%
same,"Percentage of donors demonstrating IL-10 responses, DR7","[1]; DR7 donors N=4, ICCS",50%
same,"Percentage of donors demonstrating TNF-α responses, DR7","[1]; DR7 donors N=4, ICCS",0%
same,"Percentage of donors demonstrating IFN-γ responses, DR8","[1]; DR8 donors N=4, ICCS after 14-day co-culture",0%
same,"Percentage of donors demonstrating IL-2 responses, DR8","[1]; DR8 donors N=4, ICCS",0%
same,"Percentage of donors demonstrating IL-4 responses, DR8","[1]; DR8 donors N=4, ICCS",0%
same,"Percentage of donors demonstrating IL-10 responses, DR8","[1]; DR8 donors N=4, ICCS",25%
same,"Percentage of donors demonstrating TNF-α responses, DR8","[1]; DR8 donors N=4, ICCS",0%
same,"Percentage of donors demonstrating IFN-γ responses, DR9","[1]; DR9 donors N=4, ICCS after 14-day co-culture",25%
same,"Percentage of donors demonstrating IL-2 responses, DR9","[1]; DR9 donors N=4, ICCS",0%
same,"Percentage of donors demonstrating IL-4 responses, DR9","[1]; DR9 donors N=4, ICCS",25%
same,"Percentage of donors demonstrating IL-10 responses, DR9","[1]; DR9 donors N=4, ICCS",25%
same,"Percentage of donors demonstrating TNF-α responses, DR9","[1]; DR9 donors N=4, ICCS",0%
same,"Percentage of donors demonstrating IFN-γ responses, DR11","[1]; DR11 donors N=4, ICCS after 14-day co-culture",0%
same,"Percentage of donors demonstrating IL-2 responses, DR11","[1]; DR11 donors N=4, ICCS",0%
same,"Percentage of donors demonstrating IL-4 responses, DR11","[1]; DR11 donors N=4, ICCS",0%
same,"Percentage of donors demonstrating IL-10 responses, DR11","[1]; DR11 donors N=4, ICCS",0%
same,"Percentage of donors demonstrating TNF-α responses, DR11","[1]; DR11 donors N=4, ICCS",0%
same,"Percentage of donors demonstrating IFN-γ responses, DR13","[1]; DR13 donors N=7, ICCS after 14-day co-culture",0%
same,"Percentage of donors demonstrating IL-2 responses, DR13","[1]; DR13 donors N=7, ICCS",0%
same,"Percentage of donors demonstrating IL-4 responses, DR13","[1]; DR13 donors N=7, ICCS",0%
same,"Percentage of donors demonstrating IL-10 responses, DR13","[1]; DR13 donors N=7, ICCS",29%
same,"Percentage of donors demonstrating TNF-α responses, DR13","[1]; DR13 donors N=7, ICCS",0%
same,"Percentage of donors demonstrating IFN-γ responses, DR15","[1]; DR15 donors N=7, ICCS after 14-day co-culture",29%
same,"Percentage of donors demonstrating IL-2 responses, DR15","[1]; DR15 donors N=7, ICCS",0%
same,"Percentage of donors demonstrating IL-4 responses, DR15","[1]; DR15 donors N=7, ICCS",0%
same,"Percentage of donors demonstrating IL-10 responses, DR15","[1]; DR15 donors N=7, ICCS",14%
same,"Percentage of donors demonstrating TNF-α responses, DR15","[1]; DR15 donors N=7, ICCS",0%
